Where “and” joins values, the source holds several entries; their conditions need not be identical. Equal values may be shown once. Inconclusive results and toxic doses are left out. Cut-off read from the data, not from the text of the source: active = T/C of 150% or more; inactive = T/C below 125%.
Tested on: L1210 leukemia ip in BDF1 mice, survival T/C
Assay: NCI In Vivo Anticancer Drug Screen. Data for tumor model L1210 Leukemia (intraperitoneal) in B6D2F1 (BDF1) mice
Details: endpoint: mean survival time, higher = longer survival
Outline: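 Tumor cells were implanted, animals were treated, and survival was followed. The result divides the treated measurement by the vehicle-control measurement.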

[1] = dose: 100.0 mg/kg/injection, schedule: Q01DX009 (ip), vehicle: saline
[2] = dose: 100.0 mg/kg/injection, schedule: Q04DX003 (ip), vehicle: saline
[3] = dose: 200.0 mg/kg/injection, schedule: Q01DX009 (ip), vehicle: saline
[4] = dose: 200.0 mg/kg/injection, schedule: Q04DX003 (ip), vehicle: saline
[5] = dose: 400.0 mg/kg/injection, schedule: Q04DX003 (ip), vehicle: saline
[6] = dose: 100.0 mg/kg/injection, schedule: Q01DX009 (ip), vehicle: Klucel (hydroxypropylcellulose) (HPC)
[7] = dose: 200.0 mg/kg/injection, schedule: Q01DX009 (ip), vehicle: Klucel (hydroxypropylcellulose) (HPC)
[8] = dose: 400.0 mg/kg/injection, schedule: Q01DX009 (ip), vehicle: Klucel (hydroxypropylcellulose) (HPC)
[9] = dose: 100.0 mg/kg/injection, schedule: Q01DX001 (ip), vehicle: saline
[10] = dose: 200.0 mg/kg/injection, schedule: Q01DX001 (ip), vehicle: saline
[11] = dose: 400.0 mg/kg/injection, schedule: Q01DX001 (ip), vehicle: saline
[12] = dose: 100.0 mg/kg/injection, schedule: Q01DX001 (ip), vehicle: other
[13] = dose: 200.0 mg/kg/injection, schedule: Q01DX001 (ip), vehicle: other
[14] = dose: 25.0 mg/kg/injection, schedule: Q01DX001 (ip), vehicle: saline with Tween-80
[15] = dose: 50.0 mg/kg/injection, schedule: Q01DX009 (ip), vehicle: Klucel (hydroxypropylcellulose) (HPC)
[16] = dose: 100.0 mg/kg/injection, schedule: Q01DX009 (ip), vehicle: saline with Tween-80
[17] = dose: 200.0 mg/kg/injection, schedule: Q01DX009 (ip), vehicle: saline with Tween-80
[18] = dose: 400.0 mg/kg/injection, schedule: Q01DX009 (ip), vehicle: saline with Tween-80

Measured: T/C

CC(C)(C)C(=O)/C=C/c1ccc(Cl)cc1
inactive: dose: 100.0 mg/kg/injection, schedule: Q04DX002 (ip), vehicle: gum acacia 93 % of control | dose: 200.0 mg/kg/injection, schedule: Q04DX002 (ip), vehicle: gum acacia 97 % of control | dose: 400.0 mg/kg/injection, schedule: Q04DX002 (ip), vehicle: gum acacia 104 % of control

CCOc1cc([N+](=O)[O-])c(OCC)cc1C#N
inactive: dose: 5.0 mg/kg/injection, schedule: Q01DX001 (ip), vehicle: other 106 % of control | dose: 10.0 mg/kg/injection, schedule: Q01DX001 (ip), vehicle: other 90 % of control | dose: 20.0 mg/kg/injection, schedule: Q01DX001 (ip), vehicle: other 93 % of control

C/C(=C/c1c(C)[nH]c(=O)[nH]c1=O)C(=O)O
inactive: [1] 92 % of control | [2] 98 % of control | [3] 95 % of control | [4] 104 % of control | [5] 106 % of control

CC[N+](C)(CC)CCN1c2ccccc2Sc2ccccc21
inactive: dose: 12.5 mg/kg/injection, schedule: Q04DX003 (ip), vehicle: saline 91 % of control | dose: 25.0 mg/kg/injection, schedule: Q04DX003 (ip), vehicle: saline 94 % of control and 86 % of control | dose: 50.0 mg/kg/injection, schedule: Q04DX003 (ip), vehicle: saline 86 % of control and 88 % of control

COc1ccc(C(=O)N/N=C/c2ccc(C)cc2)cc1
inactive: [6] 102 % of control | [7] 102 % of control | [8] 105 % of control

CCOP(=O)(OCC)/C(C#N)=C\c1ccc(OC)c(OC)c1
inactive: dose: 100.0 mg/kg/injection, schedule: Q04DX003 (ip), vehicle: saline with Tween-80 97 % of control | dose: 200.0 mg/kg/injection, schedule: Q04DX003 (ip), vehicle: saline with Tween-80 92 % of control | dose: 400.0 mg/kg/injection, schedule: Q04DX003 (ip), vehicle: saline with Tween-80 92 % of control

COc1cc2cc[n+](C)cc2cc1OC
inactive: dose: 50.0 mg/kg/injection, schedule: Q01DX009 (ip), vehicle: saline 111 % of control | [1] 108 % of control | [2] 104 % of control | [4] 107 % of control

CSc1cc(=O)n(C2OC(CO)C(O)C2O)c(=O)[nH]1 (stereo not given)
inactive: [9] 101 % of control | dose: 100.0 mg/kg/injection, schedule: Q01DX005 (ip), vehicle: saline 101 % of control | [10] 118 % of control | dose: 200.0 mg/kg/injection, schedule: Q01DX005 (ip), vehicle: saline 97 % of control | [11] 104 % of control

Cc1cc(CO)c(O)c(CO)c1
inactive: [12] 108 % of control | [1] 97 % of control | [13] 100 % of control | [3] 103 % of control | dose: 400.0 mg/kg/injection, schedule: Q01DX001 (ip), vehicle: other 103 % of control | dose: 400.0 mg/kg/injection, schedule: Q01DX009 (ip), vehicle: saline 103 % of control

CC1(C)N=C(N)N=C(N)N1c1ccc(Cl)cc1Cl
inactive: dose: 20.0 mg/kg/injection, schedule: Q04DX003 (ip), vehicle: Klucel (hydroxypropylcellulose) (HPC) 104 % of control | [14] 97 % of control | dose: 25.0 mg/kg/injection, schedule: Q01DX009 (ip), vehicle: Klucel (hydroxypropylcellulose) (HPC) 105 % of control | dose: 40.0 mg/kg/injection, schedule: Q04DX003 (ip), vehicle: Klucel (hydroxypropylcellulose) (HPC) 100 % of control | dose: 50.0 mg/kg/injection, schedule: Q01DX001 (ip), vehicle: saline with Tween-80 93 % of control | [15] 94 % of control | dose: 80.0 mg/kg/injection, schedule: Q04DX003 (ip), vehicle: Klucel (hydroxypropylcellulose) (HPC) 94 % of control | dose: 100.0 mg/kg/injection, schedule: Q01DX001 (ip), vehicle: saline with Tween-80 97 % of control | [9] 100 % of control | dose: 100.0 mg/kg/injection, schedule: Q04DX003 (ip), vehicle: Klucel (hydroxypropylcellulose) (HPC) 94 % of control

CC(C)(C)c1cccc(Cl)c1O
inactive: dose: 25.0 mg/kg/injection, schedule: Q01DX009 (ip), vehicle: saline with Tween-80 102 % of control | dose: 50.0 mg/kg/injection, schedule: Q01DX009 (ip), vehicle: saline with Tween-80 93 % of control | [16] 96 % of control and 98 % of control

CN=C(NN)NN
inactive: dose: 2.5 mg/kg/injection, schedule: Q01DX009 (ip), vehicle: saline 106 % of control | dose: 5.0 mg/kg/injection, schedule: Q01DX009 (ip), vehicle: saline 95 % of control | dose: 5.0 mg/kg/injection, schedule: Q04DX003 (ip), vehicle: saline 95 % of control | dose: 10.0 mg/kg/injection, schedule: Q01DX001 (ip), vehicle: saline 102 % of control | dose: 10.0 mg/kg/injection, schedule: Q01DX009 (ip), vehicle: saline 97 % of control | dose: 10.0 mg/kg/injection, schedule: Q04DX003 (ip), vehicle: saline 103 % of control | dose: 20.0 mg/kg/injection, schedule: Q01DX001 (ip), vehicle: saline 103 % of control | dose: 20.0 mg/kg/injection, schedule: Q04DX003 (ip), vehicle: saline 90 % of control

O=C1OC(c2ccccc2)=N/C1=C1\OC(=O)c2ccccc21
inactive: [15] 92 % of control | [6] 86 % of control | [7] 92 % of control | [8] 89 % of control

COC(=O)c1noc2cc([N+](=O)[O-])ccc12
inactive: [16] 96 % of control | [17] 92 % of control | [18] 90 % of control

O=P(c1ccccc1)(N1CCOCC1)N1CCOCC1
inactive: dose: 75.0 mg/kg/injection, schedule: Q04DX003 (ip), vehicle: saline 94 % of control | dose: 150.0 mg/kg/injection, schedule: Q04DX003 (ip), vehicle: saline 104 % of control | dose: 300.0 mg/kg/injection, schedule: Q04DX003 (ip), vehicle: saline 110 % of control

CCN(CC)C1=C(Cl)C(=O)C(N(CC)CC)=C(Cl)C1=O
inactive: dose: 25.0 mg/kg/injection, schedule: Q04DX002 (ip), vehicle: gum acacia 95 % of control | dose: 50.0 mg/kg/injection, schedule: Q04DX002 (ip), vehicle: gum acacia 95 % of control

O=C(O)CCC(NC(=O)c1ccccc1)C(=O)O (stereo not given)
inactive: [2] 100 % of control | [4] 95 % of control | [5] 95 % of control

CN(C(=O)OCc1ccccc1)C(Cc1ccccc1)C(=O)O (stereo not given)
inactive: [12] 95 % of control | [13] 96 % of control

CN(C)C(=S)NNC(=O)c1ccc(Cl)cc1
inactive: dose: 6.25 mg/kg/injection, schedule: Q01DX001 (ip), vehicle: saline with Tween-80 98 % of control | dose: 12.5 mg/kg/injection, schedule: Q01DX001 (ip), vehicle: saline with Tween-80 101 % of control | [14] 104 % of control

COC(=N\S(=O)(=O)c1ccccc1)/C(=N\S(=O)(=O)c1ccccc1)OC
inactive: dose: 100.0 mg/kg/injection, schedule: Q01DX001 (ip), vehicle: Klucel (hydroxypropylcellulose) (HPC) 100 % of control | dose: 200.0 mg/kg/injection, schedule: Q01DX001 (ip), vehicle: Klucel (hydroxypropylcellulose) (HPC) 104 % of control | dose: 400.0 mg/kg/injection, schedule: Q01DX001 (ip), vehicle: Klucel (hydroxypropylcellulose) (HPC) 102 % of control

S=C(Nc1ccccc1)c1ccccn1
inactive: [16] 102 % of control | [17] 100 % of control | [18] 90 % of control

NC(N)=N/N=C/c1cccc(F)c1
inactive: dose: 15.0 mg/kg/injection, schedule: Q01DX Z (ip), vehicle: saline 111 % of control | dose: 15.0 mg/kg/injection, schedule: Q01DX Z (oral), vehicle: saline 87 % of control | dose: 30.0 mg/kg/injection, schedule: Q01DX Z (ip), vehicle: saline 90 % of control | dose: 30.0 mg/kg/injection, schedule: Q01DX Z (oral), vehicle: saline 90 % of control

CCN1/C(=C/C=C2/SC(=S)N(CC(=O)O)C2=O)Oc2ccccc21
inactive: dose: 50.0 mg/kg/injection, schedule: Q01DX001 (ip), vehicle: saline 100 % of control | [9] 96 % of control | [10] 100 % of control | [11] 106 % of control
